# Source: patent US7671023B2 (Amylin Pharmaceuticals, Inc., priority 2005, dated 2010)
# What was measured:
# test animals = experiment: amylin activity in vivo in treated test animals (hyperlactemia followed by hyperglycemia); settings: e.g., provoking marked hyperlactemia followed by hyperglycemia
# mice [1] = experiment: marble burying; format: in vivo, mouse; settings: for reduction in marble burying, statistical significance: amylin at 10 mg/kg, buspirone at 20 mg/kg, P<0.05; for number of marbles buried in 30 minutes: injected 15-30 minutes prior to test, rat amylin 0.1, 1.0 or 10 mg/kg, buspirone 20/kg, FIG. 3
# Protocol: (§1) These specific behavioral tests are known to be sensitive to anxiolytic, antidepressant, or antipsychotic drugs.
# Marble burying is used as a model for both anxiety and obsessive-compulsive disorder. See, for example, Chaki et al. (2003) J. Pharmacol. Exp. Ther. 304:818-826. Anxiolytics suppress marble burying activity. […] Mice were then placed individually in clean cages containing 5-cm of hard wood bedding and 20 marbles spaced evenly in rows of five. The number of marbles buried in 30 minutes was recorded. […] Buspirone is a partial 5-HT1A agonist and an known anxiolytic agent.
# mice [2] = experiment: prepulse inhibition (PPI) test; format: in vivo, mouse; settings: amylin at 10 mg/kg; haloperidol 1 mg/kg; all prepulse levels tested (74, 78, and 82 dB); 120 dB stimulus; FIG. 5
# From the text: as §1
# The prepulse inhibition (PPI) test measures the reflex response to externally applied auditory stimulation (acoustic startle response) and is related to the deficiency in sensory-motor gating capacity seen in schizophrenia. The acoustic startle reflex is a very basic response to strong exteroceptive stimuli and is widely used to assess sensorimotor reactivity in animals and humans. A weak auditory stimulus (prepulse, 74-82 dB) given prior to the strong acoustic stimulus (120 dB) blunts the startle response. This blunting of the startle response is referred to as prepulse inhibition. […] Antipsychotics increase the ability of the prepulse stimulus to blunt the startle response to the strong stimulus. Some psychotomimetic agents, such as phencyclidine (PCP) and ketamine, can actually reduce the percent prepulse inhibition and stimulate a psychotic-like state in animals, which can be antagonized by antipsychotic agents.
# The mice were placed into an animal holder and the holder placed onto a transducer platform in an acoustic chamber. A weak auditory stimulus (prepulse) of 74, 78 and 82 dB was given prior to the strong acoustic stimulus (120 dB). The amount of the animal's “reaction” to the strong stimulus was recorded. […]
# mice [3] = experiment: forced swim test (FST); format: in vivo, mouse; settings: delivered continuously for two weeks by subcutaneous osmotic pumps; 5 minute trial session; FIG. 4
# From the text: as §1
# The forced swim test (FST) is a commonly used paradigm to evaluate antidepressant activity of drugs. This test is based on measurement of the animal's floating time in a tank filled with water. When rats or mice are forced to swim in a deep cylinder with tepid water they become nearly immobile and cease trying to escape. This characteristic immobile posture is thought to reflect a depressive-like state and is readily influenced by a wide variety of antidepressants. See, for example, Hédou et al. (2001) Pharmacol., Biochem. Behav. […] Antidepressants decrease the immobility time in the FST. Rat amylin or vehicle was delivered continuously for two weeks to mice by subcutaneously implanted osmotic pumps prior to the FST. On day one, the mice were placed in the water tank for a 15 minute pre-swim session. On day two, the mice were placed back into the water tank for assessment of climbing, swimming, and immobility over a 5 minute trial session.
# mice [4] = experiment: phencyclidine (PCP)-induced locomotion test; format: in vivo, mouse
# From the text: as §1
# The PCP-induced locomotion test is used with the open field activity chambers and measures locomotion, rearing, and stereotypic activity under amphetamine/PCP-induced conditions. The test has predictive validity for some antipsychotic drugs that normalize the hyperactivity and stereotypic behavior seen with amphetamine and PCP. See, for example, Williams et al. (2006) Prog. Neuropsychopharmacol. Biol. Psychiatry 30:239-243. […] The animals were then placed in the center of an open field and activity was recorded for 60 minutes. […] CZP is an atypical, second generation antipsychotic drug has a mixed receptor profile, including the dopamine receptor.
# mice [5] = experiment: stress-induced hyperthermia (SIH) assay; format: in vivo, mouse
# From the text: as §1
# Body temperature and emotional state are closely related in humans, and stress-induced hyperthermia (SIH) in mice is considered to have predictive validity for certain human anxiety/stress disorders. The SIH assay assesses the effect of anxiolytics or test agents on stress-induced hyperthermia and measures the intrinsic effects of these drugs on core body temperature of the animal. See, for example, Zethof et al. (1994) Physiol. Behav. […] Anxiolytics blunt the increase in body temperature, or hyperthermic response, following stress exposure. […] Mice were subjected to two sequential rectal temperature measurements ten minutes apart. The stress from the first measurement induces hyperthermia which was measured by the second temperature measurement. The difference between the two temperatures (ΔT) was the stress-induced hyperthermia.
# [6] = test system: Adult, male Sprague-Dawley rats; experiment: weight gain induced by clozapine; format: in vivo; settings: rat amylin 10 μg/kg/day co-administered with clozapine […], osmotic pump, 4 weeks; FIG. 7B
# [7] = test system: Male, Sprague-Dawley rats; experiment: sugar withdrawal paradigm with restraint stress (stress-induced feeding); format: in vivo; settings: rat amylin 300 μg/kg/d by osmotic pump
# Protocol: Male, Sprague-Dawley® rats were submitted to a sugar withdrawal paradigm and observed for effects of stress on sugar intake. […] All rats were provided with ad libitum access to standard chow, water, and a 30% sucrose drink. Subsequently, the sucrose drink was removed and half of the rats were subjected, daily, to 3 h of mild restraint stress for 3 successive days. After 3 days, sucrose was provided and its daily average consumption was measured over 4 days. Chow intake was also measured over the 3 days of withdrawal and stress and over the following 4 days when sucrose was re-introduced. No restraint was applied during the 4 days of sucrose re-introduction. Results of this assay are shown in FIG. 1 where * is P<0.05 by ANOVA and Fisher LSD post-hoc analyses.
molecule,measurement,setting,value
"CC[C@H](C)[C@H](NC(=O)[C@@H]1CCCN1C(=O)CNC(=O)[C@H](Cc1ccccc1)NC(=O)[C@H](CC(N)=O)NC(=O)[C@H](CC(N)=O)NC(=O)[C@H](CO)NC(=O)[C@H](CO)NC(=O)[C@H](Cc1c[nH]cn1)NC(=O)[C@@H](NC(=O)[C@H](CC(C)C)NC(=O)[C@H](Cc1ccccc1)NC(=O)[C@H](CC(N)=O)NC(=O)[C@H](C)NC(=O)[C@H](CC(C)C)NC(=O)[C@H](CCCNC(=N)N)NC(=O)[C@H](CCC(N)=O)NC(=O)[C@@H](NC(=O)[C@H](C)NC(=O)[C@@H]1CSSC[C@H](NC(=O)[C@@H](N)CCCCN)C(=O)N[C@@H](CC(N)=O)C(=O)N[C@@H]([C@@H](C)O)C(=O)N[C@@H](C)C(=O)N[C@@H]([C@@H](C)O)C(=O)N1)[C@@H](C)O)C(C)C)C(=O)N[C@@H](CC(C)C)C(=O)N1CCC[C@H]1C(=O)N1CCC[C@H]1C(=O)N[C@H](C(=O)N[C@@H](CC(N)=O)C(=O)N[C@H](C(=O)NCC(=O)N[C@@H](CO)C(=O)N[C@@H](CC(N)=O)C(=O)N[C@H](C(=O)N[C@@H](Cc1ccc(O)cc1)C(N)=O)[C@@H](C)O)C(C)C)[C@@H](C)O [^25,28,29Pro-h-amylin, reference compound]",amylin activity in vivo,test animals,show amylin activity in vivo
"O=C1CC2(CCCC2)CC(=O)N1CCCCN1CCN(c2ncccn2)CC1 [buspirone, reference compound]","reduction in marble burying, statistical significance",mice [1],statistically significant
same,number of marbles buried in 30 minutes,mice [1],reduced the number of marbles buried
"O=C(CCCN1CCC(O)(c2ccc(Cl)cc2)CC1)c1ccc(F)cc1 [halperidol, haloperidol, reference compound]",percent of prepulse inhibition,mice [2],significantly increased the percent of prepulse inhibition
"KCNTATCATQRLANFLVRSSNNLGPVLPPTNVGSNTY (listed as Rattus sp.) [rat amylin, 37-amino acid polypeptide hormone; rat species variant of amylin]",time spent in the immobile state,mice [3],significantly reduced the time spent in the immobile state
same,baseline activity,"mice [4]; agent alone, without PCP",did not affect baseline activity
same,rearing activity and PCP-induced rearing activity,"mice [4]; open field, with and without 5 mg/kg PCP",reduced rearing activity and PCP-induced rearing activity
same,total distance traveled,"mice [4]; rat amylin 0.1, 1.0 or 10 mg/kg or 3 mg/kg clozapine 15-30 minutes prior to 5 mg/kg PCP, total, central, and peripheral, 60 minutes, FIG. 6",significantly reduced the total distance traveled
same,SIH response (ΔT),"mice [5]; acute, 60 minutes before the assay, rat amylin 0.1, 1.0 or 10 mg/kg, chlordiazepoxide 10 mg/kg, FIG. 2",blunted the SIH response
same,"SIH response (ΔT), chronic infusion","mice [5]; subcutaneously implanted pumps, amylin 300 μg/kg/d, CDP 10 mg/kg/d, at both 1 week and 4 weeks of administration",significantly blunted the SIH response
same,weight gain observed with clozapine alone,[6],prevented the weight gain
same,percent of prepulse inhibition,mice [2],significantly increased the percent of prepulse inhibition
same,"reduction in marble burying, statistical significance",mice [1],statistically significant
same,number of marbles buried in 30 minutes,mice [1],reduced the number of marbles buried
same,average sucrose to chow consumption ratio (as % of baseline),"[7]; 3 h mild restraint stress daily for 3 days, sucrose intake over following 4 days, FIG. 1A",prevents the increase in the average sucrose to chow consumption ratio
same,chow consumption (stress-induced decrease),"[7]; restraint stress, FIG. 1B",protects against this behavioral response to stress
^28Pro-h-amylin (KCNTATCATQRLANFLVHSSNNFGAILPSTNVGSNTY),amylin activity in vivo,test animals,show amylin activity in vivo
des-^1Lys-h-amylin (CNTATCATQRLANFLVHSSNNFGAILSSTNVGSNTY),amylin activity in vivo,test animals,show amylin activity in vivo
"des-^1Lys^18Arg^25,28Pro-h-amylin (CNTATCATQRLANFLVRSSNNFGPILPSTNVGSNTY)",amylin activity in vivo,test animals,show amylin activity in vivo
